Experimental data: patent US10143668B2, “Hydroxy-substituted amino and ammonium derivatives and their medical use” (GRI BIO, INC., priority 2011, dated 2018)
Several values for one entry are separate records, joined by “and”; a condition that tells them apart may be missing. Equal values may be shown once. Where a name gives a salt, the structure may show the parent alone. Read-outs that look alike come from different tables or passages of the source. Marks after values point to notes of the source that are not given here.

How the values were obtained:
[1] = test system: RBL-2H3 cells; experiment: Maximum tolerated concentration (cytotoxicity by lactate dehydrogenase release); assay type: cell-based, rat; conditions: for MTC (maximum tolerated concentration): highest concentration not causing cytotoxicity (LDH release); for SI (safety index): ratio between MTC and IC50
Text: The safety index (SI) of a test compound is the ratio between the maximum tolerated concentration and the IC50 and is used as a measure of the relative safety of the test compound.

[2] = test system: RBL-2H3 cells; experiment: Inhibition of mast cell degranulation (β-hexosaminidase release); assay type: cell-based; conditions: Rattus norvegicus, RBL-2H3 cells sensitized with anti-DNP IgE, triggered with DNP-HSA
Text: Mast cells are key effector cells involved in allergic and inflammatory diseases, and the Rat Basophilic Leukemia clone 2H3 (RBL-2H3) cell line is a commonly used model of allergen dependent immune modulator release (degranulation) in mast cells. On their surface, they express the high affinity receptor for IgE (FcεRI) Upon binding of antigen-specific IgE to the receptor, cells become sensitized to the IgE specific antigen (allergen). When IgE-sensitized cells then encounter multivalent antigen, the antigen clusters IgE-FcεRI complexes and initiates a signal transduction cascade that leads to degranulation, that is, the release of inflammatory mediators, such as cytokines, eicosanoids, histamine and enzymes. The assay can be used as a screening method to identify immune-modulating compounds, in particular compounds useful in the medical management of allergic and inflammatory diseases and asthma. β-hexosaminidase was previously shown to be released with the same kinetics as histamine (Schwartz et al., J Immunology; 123:1445-1450 (1979)), thus offering a simple means to monitor degranulation. The RBL-2H3 cell line has been successfully used to identify compounds with anti-allergic activity (Choo et al. Planta Med., 69:518-522 (2003)).
Cell Culture: RBL-2H3 cells obtained from the German Collection of Microorganisms and Cell Cultures (ACC312) (Braunschweig, Germany) were maintained in 70% Minimum Essential Medium with Earle's Salts, 20% RPMI 1640 Medium, 10% FBS and 2 mM L-glutamine in 95% air/5% CO2 at 37° C. and routinely checked for mycoplasma contamination. Cells were passaged every 3-4 days; after washing cells once with 35 ml PBS cells were incubated 8 min with 5 ml 0.05% Trypsin-EDTA solution at 37° C. Cells were removed from the incubator, 15 ml culture medium was added and cells were resuspended by repeated pipetting.
Cell seeding: cells were harvested with Trypsin-EDTA as described and 50-100 μl cell suspension seeded into Costar CellBind 24 well cluster plates (no. 3337). Plates were kept for 30 min at RT under the sterile hood before being transferred to the incubator. Cells were used within one or two days after seeding.
For sensitization, cells for immediate use were sensitized 6-12 h after plating; cells to be used the following day were sensitized 26-38 h after plating. Culture plates were removed from the incubator and checked for cell growth and contamination. The medium was discarded and cells were sensitized with anti-DNP IgE (0.4 μg/ml) in 0.4 ml culture medium overnight. Following overnight sensitization, cells were washed with 0.8 ml pre-warmed TyB and 0.38 ml test compound or vehicle control (supplemented or not with 1% FBS) were added to duplicate wells. Samples were adjusted to contain 1% vehicle for test compounds dissolved in organic solvents. Cells were incubated for 1 h at 37° C. At the end of the incubation period, cells were routinely stimulated with 20 μl DNP-HSA (2 μg/ml; final concentration 0.1 μg/ml) diluted in TyB and cells were incubated for 15 min at 37° C. Alternatively, cells were stimulated with 20 μl 5 μM ionomycin (final concentration 0.25 μM) or 20 μl 5 μM thapsigargin (final concentration 0.25 μM), both in the absence or presence of 20 nM PMA (final concentration). […]
MUG substrate solution, 100 μl, were added to supernatant and lysate samples and plates were incubated 30 min at 37° C. […] Fluorescene was measured at 365 nm excitation and 440 nm emmission wavelengths. […]

[3] = test system: collagen type II-induced arthritis (CIA) in mice; conditions: prophylactic, 0.3 mg/kg intraperitoneally once daily
[4] = test system: DTH response in mice; assay type: in vivo; conditions: 24 h after challenge
Description: The anti-inflammatory and anti-allergic effects of compound 1a was assessed in a mouse model of skin delayed-type hypersensitivity (DTH) reactions and compared to a vehicle control and to the reference drug, dexamethasone. DTH reactions are antigen-specific cell-mediated immune responses, driven primarily by T helper type 1 (Th1) cells, similar to the tuberculin immunization response. The immune reaction induced by an ovalbumin challenge to animals previously sensitized with ovalbumin in Complete Freund's Adjuvant, is characterized by swelling (edema) at the site of challenge, e.g. the mouse ear. Dexamethasone, an anti-inflammatory steroid, reduces cell-mediated immune responses and was employed to validate the responsiveness of the assay to pharmacological treatment.
Female BALB/cJW mice were bred at the University of Lodz, Lodz, Poland and housed in groups of 8 in makrolon cages with a 12 h light-dark cycle. Mice were given free access to food (Agropol S. j., Motycz, Poland) and water.
Sensitization: The protein antigen, ovalbumin, was reconstituted in PBS at 4 mg/ml. An ovalbumin-CFA emulsion was prepared by mixing the protein solution with the CFA suspension at a ratio of 1:1, using two Luer-lock syringes. The emulsion was tested by putting a drop of emulsion onto PBS; if the emulsion remained as a tight droplet on the PBS, the emulsion was deemed ready. Mice were sensitized by subcutaneously injecting 25 μL of emulsion into each side of the tail (100 μg ovalbumin per mouse).
Challenge: On the sixth day after sensitization, DTH was elicited by challenging animals subcutaneously (gauge 30 needle, B. Braun Melsungen, Melsungen, Germany) in the left ears with 10 μL of a 1% suspension of heat-aggregated ovalbumin (HOVA) (100 μg ovalbumin per mouse). The right ears were administered subcutaneously with PBS and served to determine the individual differences in ear thicknesses. HOVA was prepared by heating a 5% solution of ovalbumin in saline for 1 h at 80° C. with occasional swirling. After cooling to room temperature and centrifugation (400 g, 10 min at 4° C.), the pellet was washed twice with saline, resuspended at 2% in PBS and aliquots stored at −30° C. Before injection, HOVA was diluted with an equal volume of PBS and sonicated. Ear thickness was measured with a precise spring-loaded caliper (Art. No. 7309, Mitutoyo, Kawasaki, Japan) before challenge, and 24 h after challenge.
Sensitization, challenge and ear thickness measurement were performed under anesthesia (ketamine 80 mg/kg plus xylazine 8 mg/kg, intraperitoneally).
The anti-inflammatory effects of compound 1a were compared to a vehicle control (0.5% methyl cellulose solution) and to the reference drug, dexamethasone. Test compound was given at 25 or 100 mg/kg orally by gavage (Art. No. 432093, Harvard Apparatus GmbH, March-Hugstetten, Germany) 16 h and 3 h before sensitization and then twice daily with the final dose given 3 h prior to ear challenge (a total of 14 administrations). Dexamethasone was given at 0.1 or 1 mg/kg orally by gavage 3 h before sensitization and once daily with the final dose given 3 h prior to antigen challenge (a total of 7 administrations). All administrations were given in a volume of 10 mL/kg.
To account for individual variability, the increase in right ear thickness, before and 24 h after administration of PBS, was subtracted from the HOVA-induced increase in left ear thickness. […]
Mean and standard deviation (SD) were calculated from individual ear edema values. […]

[5] = test system: allergic contact dermatitis response in mice; experiment: Allergic contact dermatitis (TDI) model in mice, mouse ear swelling test; assay type: in vivo
Description: The anti-inflammatory and anti-allergic effects of compound 1a were assessed in a mouse model of allergic contact dermatitis, a response driven primarily by T helper type 2 (Th2) cells. […] In this model, an allergic dermatitis response is obtained by sensitizing mice to TDI and subsequently challenging them with antigen by topical administration onto the ears. A quantitative assessment of anti-inflammatory and anti-allergic effects of topically or orally administered test compounds is possible by measuring the resulting ear swelling.
Female BALB/c-mice were obtained from Charles River (Sulzfeld, Germany) at age 8 weeks. All animals were housed in groups of eight per cage at 22° C. with a 12 h light/dark-cycle. Water and a standard diet (Altromin, Lage/Lippe, Germany) were available ad libitum. All animals were acclimatized for one week before experimental procedures were commenced.
Experimental procedures for BALB/c mice housing, TDI sensitization and challenge, and measurement of ear thickness were performed as previously described (Baumer et al., J Pharm Pharmacol. 55:1107-1114 (2003)) with the following modifications. For active sensitization, 100 μL of 5% (w/v) TDI was administered to the shaved and stripped abdominal epidermis on day one, and for the next three consecutive days, 50 μL of 5% (w/v) TDI was applied. The allergic reaction was boosted 21 days later by application of 50 μL of 0.5% (w/v) TDI. For the examination of test compound effects, the left ears were used for the TDI challenge (20 μL of 0.5% in acetone) and ear thickness measured 3 h before and 24 h after challenge.
Administration time: to determine optimal time for administration treatment groups were treated orally by gavage with 100 mg/kg of compound 1a (suspended in 0.5% tylose, 10 mL/kg) 1, 4 or 16 h before topical TDI challenge. One group was treated with 100 mg/kg miltefosine orally, 16 h before challenge (based on available data for optimal administration time for miltefosine) and vehicle treated mice received tylose (10 mL/kg) orally, 4 h before challenge.
Comparison with dexamethasone: one group of mice was treated orally with compound 1a at 100 mg/kg suspended in 0.5% tylose, 4 h before topical TDI challenge. Vehicle treated mice received 0.5% tylose orally 4 h before challenge. As a positive control, dexamethasone was administered in saline solution at 1 mg/kg or 3 mg/kg, 2 h and 30 min before challenge and 1 h after challenge. The dose and dosing scheme for dexamethasone was based on previous experience showing a maximal effect in this model.
[…] The solution was applied, 2 h before topical TDI challenge by administration of 10 μl onto each of the inner and outer surfaces of the left ears. A vehicle group (n=5) was treated with propyleneglycol. As a positive control, diflorasone diacetate was administered at 0.01% (low dose) and 0.05% (high dose) in 20 μl acetone, 2 h before challenge. A basal control group was left untreated.
Mean and standard error of the mean (SEM) were calculated from individual ear edema values. Statistical evaluation was a one-way analysis of variance (ANOVA) (if the test for normal distribution was passed) or the Kruskal-Wallis one-way ANOVA on Ranks (if the normal distribution test failed). Both were followed by a post-hoc test (Dunnett's method or Dunn's test, respectively). A p<0.05 was considered to be significant.

Row | Structure (SMILES) | MTC (maximum tolerated concentration) [1] [µM] | SI (safety index) [1] | IC50 [2] [µM] | clinical signs of arthritis [3] | Inhibition of mouse ear swelling ([4]; 0.1 mg/kg orally once daily) [%] | Inhibition of mouse ear swelling ([4]; 1.0 mg/kg orally once daily) [%] | Inhibition of mouse ear swelling ([5]; comparison with dexamethasone, 1 mg/kg oral) | Inhibition of mouse ear swelling ([5]; comparison with dexamethasone, 1 mg/kg oral, listed as dexamethasone) [%] | Inhibition of mouse ear swelling ([5]; comparison with dexamethasone, 3 mg/kg oral) | Inhibition of mouse ear swelling ([5]; comparison with dexamethasone, 3 mg/kg oral, listed as dexamethasone) [%] | inhibitory efficacy relative to 1a at its optimal administration time of 4 h ([5]; 100 mg/kg oral, 16 h before challenge) [%] | Inhibition of mouse ear swelling ([5]; administration time study, 100 mg/kg oral, 16 h before TDI challenge)
1 | CCCCCCCCCCCCCC[N+](C)(C)CC(=O)N(C)CC(O)CO (stereo not drawn) [Compound 1d, N-(2-(Dimethyl(tetradecyl)ammonio)acetyl)-N-methyl-2,3-dihydroxypropylamine trifluoroacetate] | 75 | 24.2 | 3.1 | – | – | – | – | – | – | – | – | –
2 | C[C@@H]1C[C@H]2[C@@H]3CCC4=CC(=O)C=C[C@]4(C)[C@@]3(F)[C@@H](O)C[C@]2(C)[C@@]1(O)C(=O)CO [Dexamethasone, reference compound] | – | – | – | nearly completely suppressed | 14 | 53 | 78.6*** % | 78 | 87.1*** % | 87 | – | –
3 | CCCCCCCCCCCCCCCCOP(=O)([O-])OCC[N+](C)(C)C [Miltefosine, reference compound] | 25 | 6.0 | 4.2 | – | – | – | – | – | – | – | 75 | 47% and 47.3^§ %
4 | CCCCCCCCCCCCN(C)CC(=O)N(C)C[C@H](O)[C@@H](O)[C@H](O)[C@H](O)CO [Compound 1c, N-(2-(Methyl(dodecyl)amino)acetyl)-N-methyl-D-glucamine hydrotrifluoroacetate] | 100 | 8.1 | 12.3 | – | – | – | – | – | – | – | – | –
5 | CCCCCCCCCCCCCCN(C)CC(=O)N(C)C[C@H](O)[C@@H](O)[C@H](O)[C@H](O)CO [Compound 1b, N-(2-(Methyl(tetradecyl)amino)acetyl)-N-methyl-D-glucamine hydrotrifluoroacetate] | 50 | 10.2 | 4.9 | – | – | – | – | – | – | – | – | –
